System: ncRNAs (SEQ ID NO 28-89)
Assay: ncRNA arrays of melanocytes, keratinocytes, normal skin, melanoma cell lines and patient samples
Design: species or system human
Conditions: for ncRNA array expression, patient 2: melanoma patient 2 sample compared to normal skin; for ncRNA array expression, patient 3: melanoma patient 3 sample compared to normal skin; for ncRNA array expression, patient 4: melanoma patient 4 sample compared to normal skin; for ncRNA array expression, patient 5: melanoma patient 5 sample compared to normal skin; for ncRNA array expression, patient 6: melanoma patient 6 sample compared to normal skin; for ncRNA array expression, patient 7: melanoma patient 7 sample compared to normal skin; for ncRNA array expression, patient 8: melanoma patient 8 sample compared to normal skin; for ncRNA array expression, patient 9: melanoma patient 9 sample compared to normal skin; for ncRNA array expression, patient 10: melanoma patient 10 sample compared to normal skin; for ncRNA array expression, patient 19: melanoma patient 19 sample compared to normal skin; for ncRNA array expression, patient 20: melanoma patient 20 sample compared to normal skin; for ncRNA array expression, patient 21: melanoma patient 21 sample compared to normal skin; for ncRNA array expression, patient 22: melanoma patient 22 sample compared to normal skin; for ncRNA array expression, patient 23: melanoma patient 23 sample compared to normal skin; for ncRNA array expression, patient 24: melanoma patient 24 sample compared to normal skin; for ncRNA array expression, patient 25: melanoma patient 25 sample compared to normal skin; for ncRNA array expression, patient 26: melanoma patient 26 sample compared to normal skin; for ncRNA array expression, patient 27: melanoma patient 27 sample compared to normal skin; for ncRNA array expression, patient 28: melanoma patient 28 sample compared to normal skin; for ncRNA array expression, patient 29: melanoma patient 29 sample compared to normal skin; for ncRNA array expression, patient 30: melanoma patient 30 sample compared to normal skin
Outline: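 Differential ncRNA expression was defined against melanocytes or normal skin after subtracting keratinocyte-specific signals, with confirmation by qRT-PCR and Northern blot. Samples were melanoma cell lines, patient tumours, melanocytes, keratinocytes and normal skin, hybridised to a >10,000-probe (>200 nt) ncRNA array that also carries RefSeq mRNA probes.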

Row | Substance | ncRNA array expression, patient 2 | ncRNA array expression, patient 3 | ncRNA array expression, patient 4 | ncRNA array expression, patient 5 | ncRNA array expression, patient 6 | ncRNA array expression, patient 7 | ncRNA array expression, patient 8 | ncRNA array expression, patient 9 | ncRNA array expression, patient 10 | ncRNA array expression, patient 19 | ncRNA array expression, patient 20 | ncRNA array expression, patient 21 | ncRNA array expression, patient 22 | ncRNA array expression, patient 23 | ncRNA array expression, patient 24 | ncRNA array expression, patient 25 | ncRNA array expression, patient 26 | ncRNA array expression, patient 27 | ncRNA array expression, patient 28 | ncRNA array expression, patient 29 | other results
1 | SEQ ID NO 70 (AGTTATAGAGGAGGCTCAGGAGGATCTGGGGAAACGGGACCAGAGGGTAAGATGGGTTAT; listed as DNA, chemistry not given here; listed as Homo sapiens) | −1.553 | −1.673 | −1.217 | −1.521 | −1.483 | −1.751 | −2.182 | −1.366 | −0.6931 | −1.792 | −1.615 | −1.1 | −1.351 | −0.7876 | −1.593 | −1.473 | −1.495 | −1.848 | −1.549 | −1.625 | ncRNA array expression, patient 30: −0.6666
2 | SEQ ID NO 49 (CGATGGCTTGTCATTGTCCCCTGTCCTGGAACAATAAAGCAAGTGCCTTGTGGTCTCACT; listed as DNA, chemistry not given here; listed as Homo sapiens) | −3.131 | −1.901 | −2.3226 | −1.9036 | 0.7986 | −1.477 | −1.974 | −2.214 | −4.429 | −2.094 | −2.123 | −2.207 | −2.118 | −1.787 | −1.642 | −2.472 | −3.037 | −2.447 | −2.621 | −2.39 | ncRNA array expression, patient 30: −0.9259
3 | SEQ ID NO 58 (ATTTATTTGACTCTAAAATGACAATATAACAACTATAAGGAATTGATATGATGTCCTTAC; listed as DNA, chemistry not given here; listed as Homo sapiens) | −1.675 | −1.723 | −0.4325 | −1.707 | −1.802 | −1.2619 | −1.825 | −1.569 | −1.223 | −1.471 | −1.134 | −1.719 | −1.28 | −1.756 | −1.757 | −1.52 | −1.463 | −1.595 | −1.708 | −1.543 | ncRNA array expression, patient 30: −1.631
4 | SEQ ID NO 40 (GTTAAAGACTAAATTAGTGATTTGGGAGATCAAGCCAATGGGCTTGTCTAAAACCTAGTC; listed as DNA, chemistry not given here; listed as Homo sapiens) | 1.341 | 1.98 | 2.261 | 0.52 | 1.498 | 0.4373 | 1.771 | 0.4625 | 0.3577 | 0.3342 | 0.9994 | 0.489 | 0.9011 | 1.125 | 0.452 | 2.17 | 2.021 | 1.467 | 1.364 | 1.245 | ncRNA array expression, patient 30: 0.7348
5 | SEQ ID NO 28 (CTTAATGTATCTAAGGTTGGCTTAATCCTGTCTAAAATCAAGGTATTGGACTAGAACAAT; DNA, backbone and methylation of C not given here; listed as Homo sapiens) | 2.064 | 2.037 | 2.709 | 1.822 | −0.1399 | 2.032 | 1.588 | 0.7923 | −0.2665 | 0.5486 | 1.334 | 0.4728 | 1.388 | 2.286 | 0.3368 | 2.417 | 3.091 | 2.371 | 3.316 | 3.278 | ncRNA array expression, patient 30: −1.35
6 | SEQ ID NO 33 (TATTGAATGTACACAAGTAATGATGGAGTTTGATTATATGGTTCATTTTCATTTATCCTA; DNA, backbone and methylation of C not given here; listed as Homo sapiens) | 0.6575 | 0.8123 | 3.512 | 0.6998 | 1.768 | 2.379 | 2.278 | 0.3136 | 1.984 | 1.068 | 1.404 | 1.613 | 0.8185 | −0.4072 | 3.016 | 1.628 | 2.999 | 3.593 | 2.24 | 2.111 | ncRNA array expression, patient 30: −0.2823
